Test results as given in ChEMBL document CHEMBL4130368, “Thienopyrimidine derivatives exert their anticancer efficacy via apoptosis induction, oxidative stress and mitotic catastrophe” (Eur J Med Chem, 2017).
The source made the active and inactive calls. The rule behind the calls is not given here.

Key:
[1] = test system: HCT-116; test: Antiproliferative activity against human HCT116 cells after 72 hrs by MTT assay; type: functional, cell-based; conditions: HCT-116, 72 h
[2] = Selectivity index, ratio of IC50 for CHO cells to IC50 for human LN229 cells; type: toxicity; conditions: Chinese hamster (CHO cells), CHO cells versus LN229 cells, read-out: Ratio IC50
[3] = Selectivity index, ratio of IC50 for CHO cells to IC50 for human GBM10 cells; type: toxicity; conditions: Chinese hamster (CHO cells), CHO cells versus GBM10 cells, read-out: Ratio IC50
[4] = Selectivity index, ratio of IC50 for CHO cells to IC50 for human A2780 cells; type: toxicity; conditions: Chinese hamster (CHO cells), CHO cells versus A2780 cells, read-out: Ratio IC50
[5] = test system: A2780; test: Inhibition of colony formation in human A2780 cells at 1 to 2 uM after 24 hrs by crystal violet dye based assay; type: functional, cell-based
[6] = test system: HCT-116; test: Cell cycle arrest in human HCT116 cells assessed as accumulation at G1 phase at 2 uM measured after overnight incubation by propidium iodide staining-based flow cytometry (reference value: 63.5%); type: functional
[7] = test system: HCT-116; test: Cell cycle arrest in human HCT116 cells assessed as accumulation at […] at 2 uM measured after overnight incubation by propidium iodide staining-based flow cytometry (reference value: 9.70%); type: functional
[8] = test system: 2008; test: Cell cycle arrest in human OV2008 cells assessed as accumulation at G1 phase at 1 uM measured after overnight incubation by propidium iodide staining-based flow cytometry (reference value: 52.6%); type: functional
[9] = test system: 2008; test: Cell cycle arrest in human OV2008 cells assessed as accumulation at S phase at 1 uM measured after overnight incubation by propidium iodide staining-based flow cytometry (reference value: 10.8%); type: functional
[10] = test system: 2008; test: Cell cycle arrest in human OV2008 cells assessed as accumulation at G2 phase at 1 uM measured after overnight incubation by propidium iodide staining-based flow cytometry (reference value: 26.9%); type: functional
[11] = test system: 2008; test: Cell cycle arrest in human OV2008 cells assessed as accumulation at subG1 phase at 2 uM measured after overnight incubation by propidium iodide staining-based flow cytometry (reference value: 2.64%); type: functional
[12] = test system: A2780; test: Cell cycle arrest in human A2780 cells assessed as accumulation at G2 phase at 1 uM measured after overnight incubation by propidium iodide staining-based flow cytometry (reference value: 24.9%); type: functional
[13] = test system: A2780; test: Cell cycle arrest in human A2780 cells assessed as accumulation at subG1 phase at 2 uM measured after overnight incubation by propidium iodide staining-based flow cytometry (reference value: 8.88%); type: functional
[14] = test system: A2780; test: Cell cycle arrest in human A2780 cells assessed as accumulation at S phase at 2 uM measured after overnight incubation by propidium iodide staining-based flow cytometry (reference value: 15.2%); type: functional
[15] = test system: A2780; test: Cell cycle arrest in human A2780 cells assessed as accumulation at G2 phase at 2 uM measured after overnight incubation by propidium iodide staining-based flow cytometry (reference value: 24.9%); type: functional
[16] = test system: 2008; test: Induction of cellular oxidative stress in human OV2008 cells assessed as increase in ROS levels at 0.5 to 4 uM after 48 hrs by DCFDA dye-based fluorescence microscopic method; type: functional, cell-based
[17] = test system: A2780; test: Induction of cellular oxidative stress in human A2780 cells assessed as increase in ROS levels at 0.5 to 4 uM after 48 hrs by DCFDA dye-based fluorescence microscopic method; type: functional, cell-based
[18] = test system: HCT-116; test: Induction of mitotic catastrophe in human HCT116 cells assessed as formation of large with flattened cells at 0.5 to 2 uM measured after overnight incubation by DAPI-staining based microscopy; type: functional, cell-based
[19] = test system: 2008; test: Induction of mitotic catastrophe in human OV2008 cells assessed as formation of large with flattened cells at 0.5 to 2 uM measured after overnight incubation by DAPI-staining based microscopy; type: functional, cell-based
[20] = test system: HCT-116; test: Induction of apoptosis in human HCT116 cells assessed as cell shrinkage at 0.5 to 2 uM measured after overnight incubation by DAPI-staining based microscopy; type: functional
[21] = test system: HCT-116; test: Induction of apoptosis in human HCT116 cells assessed as condensation of nuclei at 0.5 to 2 uM measured after overnight incubation by DAPI-staining based microscopy; type: functional, cell-based
[22] = test system: 2008; test: Induction of apoptosis in human OV2008 cells assessed as condensation of nuclei at 0.5 to 2 uM measured after overnight incubation by DAPI-staining based microscopy; type: functional, cell-based
[23] = test system: 2008; test: Induction of apoptosis in human OV2008 cells assessed as early apoptotic cells at 1 uM measured after overnight incubation by mitotracker red/alexa fluor-488 Annexin V staining-based flow cytometry (reference value: 12.9%); type: functional
[24] = test system: 2008; test: Induction of apoptosis in human OV2008 cells assessed as late apoptotic cells at 1 uM measured after overnight incubation by mitotracker red/alexa fluor-488 Annexin V staining-based flow cytometry (reference value: 0.255%); type: functional
[25] = test system: 2008; test: Induction of apoptosis in human OV2008 cells assessed as viable cells at 2 uM measured after overnight incubation by mitotracker red/alexa fluor-488 Annexin V staining-based flow cytometry (reference value: 80.5%); type: functional; conditions: read-out: Activity
[26] = test system: 2008; test: Induction of apoptosis in human OV2008 cells assessed as late apoptotic cells at 2 uM measured after overnight incubation by mitotracker red/alexa fluor-488 Annexin V staining-based flow cytometry (reference value: 0.255%); type: functional
[27] = test system: A2780; test: Induction of apoptosis in human A2780 cells assessed as viable cells at 1 uM measured after overnight incubation by mitotracker red/alexa fluor-488 Annexin V staining-based flow cytometry (reference value: 78.1%); type: functional; conditions: read-out: Activity
[28] = test system: A2780; test: Induction of apoptosis in human A2780 cells assessed as early apoptotic cells at 1 uM measured after overnight incubation by mitotracker red/alexa fluor-488 Annexin V staining-based flow cytometry (reference value: 11.9%); type: functional
[29] = test system: A2780; test: Induction of apoptosis in human A2780 cells assessed as late apoptotic cells at 1 uM measured after overnight incubation by mitotracker red/alexa fluor-488 Annexin V staining-based flow cytometry (reference value: 0.015%); type: functional
[30] = test system: A2780; test: Induction of apoptosis in human A2780 cells assessed as necrotic cells at 2 uM measured after overnight incubation by mitotracker red/alexa fluor-488 Annexin V staining-based flow cytometry (reference value: 9.94%); type: functional
[31] = test system: HCT-116; test: Antiproliferative activity against bax deficient human HCT116 cells assessed after 72 hrs by MTT assay; type: functional, cell-based; conditions: HCT-116, 72 h
[32] = test system: HCT-116; test: Antiproliferative activity against bak deficient human HCT116 cells after 72 hrs by MTT assay; type: functional, cell-based; conditions: HCT-116, 72 h
[33] = test system: HCT-116; test: Antiproliferative activity against dko deficient human HCT116 cells after 72 hrs by MTT assay; type: functional, cell-based; conditions: HCT-116, 72 h
[34] = test system: HCT-116; test: Induction of morphological changes in human HCT116 cells at 0.1 to 3 uM after 68 hrs by microscopic method; type: functional, cell-based
[35] = test system: 2008; test: Induction of morphological changes in human OV2008 cells at 0.1 to 3 uM after 68 hrs by microscopic method; type: functional, cell-based
[36] = test system: A2780; test: Induction of morphological changes in human A2780 cells at 0.1 to 3 uM after 68 hrs by microscopic method; type: functional, cell-based
[37] = test system: A2780; test: Induction of mitotic catastrophe in human A2780 cells assessed as multinuclear changes at 0.5 to 2 uM measured after overnight incubation by DAPI-staining based microscopy; type: functional, cell-based

- IC50 [1]: 600 nM
- IC50 [31]: 1200 nM
- IC50 [32]: 1400 nM
- IC50 [33]: 1400 nM
Structure (SMILES): COc1ccc(-c2nc(O)c3c4c(sc3n2)CCCC4)cc1
- selectivity ratio [2]: 17 to 28
- selectivity ratio [3]: 17 to 28
- selectivity ratio [4]: 17 to 28
- inhibition [5]: Dose-dependent effect
- Activity [6]: 29.5%
- Activity [7]: 10.6%
- Activity [8]: 19.5%
- Activity [9]: 20.4%
- Activity [10]: 44.6%
- Activity [11]: 1.29%
- Activity [12]: 57.8%
- Activity [13]: 7.54%
- Activity [14]: 9.02%
- Activity [15]: 63.5%
- Activity [16]: Active
- Activity [17]: Active
- Activity [18]: Active
- Activity [19]: Active
- Activity [20]: Active
- Activity [21]: Active
- Activity [22]: Active
- Activity [23]: 20.3%
- Activity [24]: 0.245%
- viability at 2 µM [25]: 73.9%
- Activity [26]: 0.057%
- viability at 1 µM [27]: 73.8%
- Activity [28]: 25.8%
- Activity [29]: 0%
- Activity [30]: 5.77%
- Activity [34]: Active
- Activity [35]: Active
- Activity [36]: Active
- Activity [37]: Active
